Square brackets hold non-standard residues; d marks the D form. Peptide text beside a SMILES is read from it. * marks the point of attachment. Dolaproine = CO[C@@H]([C@@H]1CCCN1)[C@@H](C)C(=O)O; Dil = CC[C@H](C)[C@H](NC)[C@@H](CC(=O)O)OC; X1 = C[C@@H](N*)[C@@H](O)c1ccccc1; NMeV = CN[C@H](C(=O)O)C(C)C
Experiments:
[1] = Membrane permeability test, parallel artificial membrane permeability assay (PAMPA); type: in vitro ADME; conditions: pH 7.4, 37° C.; for Papp at 4 h: read-out: permeability coefficient Pe (pH 7.4)
Protocol: By the parallel artificial membrane permeability assay (PAMPA), the membrane permeability of compounds of Examples was examined as follows: To the donor plate, System solution (pION inc.) and GIT Lipid-0 (pION inc.) were added in an amount of 200 μL and 4 μL for each well, respectively. To the acceptor plate, Acceptor Sink Buffer (pION inc.) was added in an amount of 200 μL. Both plates were superposed and incubated at 37° C. for 4 hours, and then, UVs in the solutions on the side of acceptor and on the side of donor were measured with a UV plate reader (190 to 500 nm). Compounds with poor UV absorption were measured by LC-MS. The permeability coefficient Pe (10^−6 cm/sec) of the drug was calculated by the following formula.

[2] = target: T1, porcine tubulin (Sus scrofa, UniProt P02550+P02554); assay: Activity for inhibiting microtubule polymerization using porcine tubulins (2), microtubule polymerization rate; type: biochemical; conditions: compound 9.1 μM, 60 minutes after assay initiation, relative to wells without compound; lower = stronger inhibition
T1 construct: purchased Cytoskeleton Inc. BK006P
T1 sequence (P02550 whole entry): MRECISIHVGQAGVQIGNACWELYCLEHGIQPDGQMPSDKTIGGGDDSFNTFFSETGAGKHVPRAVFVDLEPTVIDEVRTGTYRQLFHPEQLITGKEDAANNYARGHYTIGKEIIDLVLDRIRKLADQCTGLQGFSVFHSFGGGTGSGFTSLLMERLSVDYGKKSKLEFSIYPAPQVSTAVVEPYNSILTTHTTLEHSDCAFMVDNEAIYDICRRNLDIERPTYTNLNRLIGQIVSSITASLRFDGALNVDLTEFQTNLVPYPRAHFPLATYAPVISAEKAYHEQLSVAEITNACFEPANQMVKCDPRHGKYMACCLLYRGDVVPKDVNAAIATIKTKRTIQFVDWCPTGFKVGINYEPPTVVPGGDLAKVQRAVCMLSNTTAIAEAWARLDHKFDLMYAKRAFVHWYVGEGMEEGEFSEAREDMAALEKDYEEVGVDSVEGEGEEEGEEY
T1 sequence (P02554 whole entry): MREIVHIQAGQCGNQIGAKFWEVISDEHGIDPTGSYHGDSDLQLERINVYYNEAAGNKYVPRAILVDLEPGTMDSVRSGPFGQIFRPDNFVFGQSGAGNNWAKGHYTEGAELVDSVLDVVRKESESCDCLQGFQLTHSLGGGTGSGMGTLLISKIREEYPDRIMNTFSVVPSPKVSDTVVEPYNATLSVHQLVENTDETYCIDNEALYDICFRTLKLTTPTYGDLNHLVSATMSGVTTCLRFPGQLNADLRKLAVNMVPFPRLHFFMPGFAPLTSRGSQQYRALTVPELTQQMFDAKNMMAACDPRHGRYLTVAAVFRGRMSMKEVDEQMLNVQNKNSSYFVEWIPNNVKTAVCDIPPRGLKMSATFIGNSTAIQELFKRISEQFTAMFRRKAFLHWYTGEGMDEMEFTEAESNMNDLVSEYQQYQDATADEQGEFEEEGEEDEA
Protocol: (§1) Using a tubulin polymerization inhibition assay kit (catalog number: BK006P) purchased from Cytoskeleton Inc., the polymerization inhibitory activity of compounds of Examples at a concentration of 9.1 μM was evaluated in accordance with the protocol appended to the kit. To a 96 well microplate, 80 mM PIPES pH 6.9, 2 mM MgCl, 0.5 mM EGTA and 5% DMSO buffered solution of the compound to be evaluated was added in an amount of 10 μL for each well, and to these wells, 3 mg/mL porcine tubulin 80 mM PIPES pH 6.9, 2 mM MgCl, 0.5 mM EGTA, 1 mM GTP and 10.2% glycerol solution was added in an amount of 100 μL for each well. In order to examine a state in which tubulins polymerize over time, the absorbance at 340 nm was measured at 37° C., using a microplate reader. As the polymerization of tubulins progresses, the absorbance at 340 nm rises.
The tubulin polymerization inhibitory activity was evaluated based on the proportion of polymerized tubulins 60 minutes after the assay initiation. Specifically, the microtubule polymerization rate (%) was calculated by dividing the absorbance of tubulins that had polymerized at wells to which the compound had been added by the absorbance of tubulins that had polymerized at wells to which the compound had not been added, and multiplying the obtained value by 100.

[3] = target: T1, porcine tubulin; assay: Activity for inhibiting microtubule polymerization using porcine tubulins (1), tubulin polymerization inhibition assay kit; type: biochemical; conditions: compound 0.91 μM, absorbance at 340 nm at 37° C., FIG. 1
Protocol: as §1, with “Examples with” for “Examples at”, “of 0.91” for “of 9.1”, “kit. In summary of the protocol, to” for “kit. To”

Row | SMILES | Papp at 4 h [1] [×10⁻⁶ cm/s] | Microtubule polymerization rate (%) [2] [%] | activity for inhibiting microtubule polymerization [3] | permeability coefficient Pe (pH 7.4) ([1]; 4 hours)
1 | CN[C@H](C(=O)N[C@H](C(=O)N(C)[C@H](/C=C(\C)C(=O)N[C@H](CC(=O)NCCN1C(=O)CC(SC[C@H](N)C(=O)O)C1=O)C(=O)O)C(C)C)C(C)(C)C)C(C)(C)c1ccccc1 (stereo partly drawn) [Example 40] | 3 | – | – | –
2 | CN[C@H](C(=O)N[C@H](C(=O)N(C)[C@H](/C=C(\C)C(=O)NCCCC[C@@H](NC(=O)CCCN1C(=O)CC(SC[C@H](N)C(=O)O)C1=O)C(=O)O)C(C)C)C(C)(C)C)C(C)(C)c1cn(C)c2ccccc12 (stereo partly drawn) [Example 39] | 1.4 | 2 | – | –
3 | CN[C@H](C(=O)N[C@H](C(=O)N(C)[C@H](/C=C(\C)C(=O)N[C@H](CCC(=O)O)C(=O)O)C(C)C)C(C)(C)C)C(C)(C)c1cn(C)c2ccccc12 [Example 1, N,β,β-tetramethyl-L-tryptophyl-N-[(3S,4E)-6-{[(1R)-1,3-dicarboxypropyl]amino}-2,5-dimethyl-6-oxohex-4-en-3-yl]-N,3-dimethyl-L-valinamide] | < 0.1 | – | comparable activities for inhibiting microtubule polymerization | –
4 | CN[C@H](C(=O)N[C@H](C(=O)N(C)[C@H](/C=C(\C)C(=O)N[C@H](CCC(=O)NCCN1C(=O)CC(SC[C@H](N)C(=O)O)C1=O)C(=O)O)C(C)C)C(C)(C)C)C(C)(C)c1ccccc1 (stereo partly drawn) [Example 37, (3S,6S,9S,10E,14R)-14-(3-{[2-(3-{[(2R)-2-Amino-2-carboxyethyl]sulfanyl}-2,5-dioxopyrrolidin-1-yl)ethyl]amino}-3-oxopropyl)-6-tert-butyl-8,11-dimethyl-4,7,12-trioxo-3-(2-phenylpropan-2-yl)-9-(propan-2-yl)-2,5,8,13-tetraazapentadec-10-en-15-oic acid] | 0.2 | 9 | – | –
5 | CN[C@H](C(=O)N[C@H](C(=O)N(C)[C@H](/C=C(\C)C(=O)N[C@@H](CCC(=O)O)C(=O)O)C(C)C)C(C)(C)C)C(C)(C)c1cn(C)c2ccccc12 [Example 6] | < 0.1 | 4 | – | –
6 | CN[C@H](C(=O)N[C@H](C(=O)N(C)[C@H](/C=C(\C)C(=O)N[C@H](CC(=O)O)C(=O)O)C(C)C)C(C)(C)C)C(C)(C)c1cn(C)c2ccccc12 [Example 5] | < 0.1 | – | – | –
7 | CN[C@H](C(=O)N[C@H](C(=O)N(C)[C@H](/C=C(\C)C(=O)N[C@@H](CC(=O)NCCN1C(=O)CC(SC[C@H](N)C(=O)O)C1=O)C(=O)O)C(C)C)C(C)(C)C)C(C)(C)c1ccccc1 (stereo partly drawn) [Example 41] | < 0.1 | – | – | –
8 | CN[C@H](C(=O)N[C@H](C(=O)N(C)[C@H](/C=C(\C)C(=O)NCCCC[C@@H](NC(=O)CCCN1C(=O)CC(SC[C@H](N)C(=O)O)C1=O)C(=O)O)C(C)C)C(C)(C)C)C(C)(C)c1ccccc1 (stereo partly drawn) [Example 58] | 3 | 0 | – | –
9 | CN[C@H](C(=O)N[C@H](C(=O)N(C)[C@H](/C=C(\C)C(=O)N[C@H](CCCCN)C(=O)O)C(C)C)C(C)(C)C)C(C)(C)c1cn(C)c2ccccc12 [Example 7] | 0.8 | – | – | –
10 | CN[C@H](C(=O)N[C@H](C(=O)N(C)[C@H](/C=C(\C)C(=O)N[C@H](CCC(=O)NCCCN1C(=O)CC(SC[C@H](N)C(=O)O)C1=O)C(=O)O)C(C)C)C(C)(C)C)C(C)(C)c1cn(C)c2ccccc12 (stereo partly drawn) [Example 54] | < 0.1 | 0 | – | –
11 | CN[C@H](C(=O)N[C@H](C(=O)N(C)[C@H](/C=C(\C)C(=O)N[C@H](CCC(=O)O)C(=O)O)C(C)C)C(C)(C)C)C(C)(C)c1ccccc1 [Example 2, N,β,β-Trimethyl-L-phenylalanyl-N-[(3S,4E)-6-{[(1R)-1,3-dicarboxypropyl]amino}-2,5-dimethyl-6-oxohex-4-en-3-yl]-N,3-dimethyl-L-valinamide] | < 0.1 | 2 | – | –
12 | CN[C@H](C(=O)N[C@H](C(=O)N(C)[C@H](/C=C(\C)C(=O)N[C@@H](CCC(=O)O)C(=O)O)C(C)C)C(C)(C)C)C(C)(C)c1ccccc1 [Example 9] | < 0.1 | 5 | – | –
13 | C/C(=C\[C@H](C(C)C)N(C)C(=O)[C@@H](NC(=O)[C@H]1CCCCN1C(C)C)C(C)(C)C)C(=O)N[C@H](CCC(=O)O)C(=O)O [Example 3, N-[(2E,4S)-2,5-Dimethyl-4-(methyl {3-methyl-N-[(2R)-1-(propan-2-yl)piperidine-2-carbonyl]-L-valyl}amino)hex-2-enoyl]-D-glutamic acid] | < 0.1 | 5 | – | –
14 | CN[C@H](C(=O)N[C@H](C(=O)N(C)[C@H](/C=C(\C)C(=O)N[C@@H](CCC(=O)NCCN1C(=O)CC(SC[C@H](N)C(=O)O)C1=O)C(=O)O)C(C)C)C(C)(C)C)C(C)(C)c1cn(C)c2ccccc12 (stereo partly drawn) [Example 49] | < 0.1 | 0 | – | –
15 | CN[C@H](C(=O)N[C@H](C(=O)N(C)[C@H](/C=C(\C)C(=O)N[C@H](CCC(=O)NCCCCN1C(=O)CC(SC[C@H](N)C(=O)O)C1=O)C(=O)O)C(C)C)C(C)(C)C)C(C)(C)c1ccccc1 (stereo partly drawn) [Example 48] | 5.8 | 0 | – | –
16 | CN[C@H](C(=O)N[C@H](C(=O)N(C)[C@H](/C=C(\C)C(=O)N[C@@H](CCC(=O)NCCN1C(=O)CC(SC[C@H](N)C(=O)O)C1=O)C(=O)O)C(C)C)C(C)(C)C)C(C)(C)c1ccccc1 (stereo partly drawn) [Example 42] | 2.2 | 0 | – | –
17 | CN[C@H](C(=O)N[C@H](C(=O)N(C)[C@H](/C=C(\C)C(=O)N[C@H](CCC(=O)O)C(=O)NCCN1C(=O)CC(SC[C@H](N)C(=O)O)C1=O)C(C)C)C(C)(C)C)C(C)(C)c1ccccc1 (stereo partly drawn) [Example 46] | 3.5 | 0 | – | –
18 | CC[C@H](C)[C@@H]([C@@H](CC(=O)N1CCC[C@H]1[C@H](OC)[C@@H](C)C(=O)N[C@H](C)[C@@H](O)c1ccccc1)OC)N(C)C(=O)[C@@H](NC(=O)[C@@H](NC)C(C)C)C(C)C [MMAE, monomethyl auristatin, reference compound] (H-[NMeV]V[Dil][Dolaproine]-X1) | – | – | comparable activities for inhibiting microtubule polymerization | 15.3 10^−6 cm/sec
19 | CN[C@H](C(=O)N[C@H](C(=O)N(C)[C@H](/C=C(\C)C(=O)N[C@@H](CCCCNC(=O)CCCN1C(=O)CC(SC[C@H](N)C(=O)O)C1=O)C(=O)O)C(C)C)C(C)(C)C)C(C)(C)c1cn(C)c2ccccc12 (stereo partly drawn) [Example 57] | < 0.1 | – | – | –
20 | CN[C@H](C(=O)N[C@H](C(=O)N(C)[C@H](/C=C(\C)C(=O)O)C(C)C)C(C)(C)C)C(C)(C)c1cn(C)c2ccccc12 [Hemiasterlin, reference compound] | 25.6 | 0 | comparable activities for inhibiting microtubule polymerization | –
